Assay results reported in patent US20230117034A1, “PYRAZOLOTRIAZINES” (Bayer Aktiengesellschaft, priority 2019, published 2023).

Key:
CDK2/CycE = molecular target: T1, CDK2/CycE (Homo sapiens, UniProt P24941); experiment: CDK2/CycE kinase assay (TR-FRET, 2 mM ATP); assay type: biochemical; conditions: 2 mM ATP (high ATP); median; read-out: CDK2/CyclinE, 2 mM ATP (high ATP), IC50 (median)
T1 construct: purchased ProQinase GmbH (Freiburg, Germany); host or cells: insect cells (Sf9)
Outline: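 Biotin-peptide phosphorylation (0.75 µM substrate, 2 mM ATP final, 25 min, 22 °C) by Sf9-expressed GST-CDK2/GST-CycE, after a 15-min compound pre-binding step. Inhibition scaled between enzyme-free (100%) and uninhibited (0%) wells.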

[1] = system: MDA-MB-231, human breast cancer cells; experiment: Proliferation assay MDA-MB-231 (crystal violet, 4 days); assay type: cell-based; conditions: Homo sapiens, MDA-MB-231, 96 h, MDA-MB-231 cells, median, read-out: Prolif-MDA MB-231, IC50-[mol/l] (median)
Description: Human tumour cells were originally obtained from the American Type Culture Collection (ATCC), or from the Deutsche Sammlung von Mikroorganismen und Zellkulturen (DSMZ, German Collection of Microorganisms and Cell Cultures). Cultivated tumour cells (CAL-120, human breast adenocarcinoma cells, DSMZ ACC-459; MDA-MB-231, human breast cancer cells, ATCC HTB-26) were plated at a density of 4,000 cells/well in a 96-well multititer plate in 200 microL of their respective growth medium supplemented 10% fetal calf serum. After 24 hours, the cells of one plate (zero-point plate) were stained with crystal violet (see below), while the medium of the other plates was supplemented with the test substances in various concentrations (0 micromol/L, as well as in the range of 0.01-10 micromol/L; the final concentration of the solvent dimethyl sulfoxide was adjusted to 0.1%) using a Tecan HP D300 Digital Dispenser. The cells were incubated for 4 days in the presence of test substances. Cell proliferation was determined by staining the cells with crystal violet: the cells were fixed by adding 20 microL/measuring point of an 11% glutaric aldehyde solution for 15 minutes at room temperature. After three washing cycles of the fixed cells with water, the plates were dried at room temperature. The cells were stained by adding 100 microL/measuring point of a 0.1% crystal violet solution (pH 3.0). After three washing cycles of the stained cells with water, the plates were dried at room temperature. The dye was dissolved by adding 100 microL/measuring point of a 10% acetic acid solution. The extinction was determined by photometry at a wavelength of 595 nm. The change of cell number, in percent, was calculated by normalization of the measured values to the extinction values of the zero-point plate (=0%) and the extinction of the untreated (0 μM) cells (=100%). The IC50 values (inhibitory concentration at 50% of maximal effect) were determined by means of a 4 parameter fit.

Row | Compound | IC50 (CDK2/CycE) [nM] | IC50 [1] [nM]
1 | C[C@@H]1CN(c2nc(NCc3nnc(-c4ccccc4)[nH]3)n3ncc(Br)c3n2)CCN1C.O=CO [Example 130, 8-bromo-2-[(3R)-3,4-dimethylpiperazin-1-yl]-N-[(5-phenyl-4H-1,2,4-triazol-3-yl)methyl]pyrazolo[1,5-a][1,3,5]triazin-4-amine formate] | 8150 | 35.6
2 | N=S1(=O)CCN(c2nc(NCc3nc4ccccc4[nH]3)n3ncc(Br)c3n2)CC1 [Example 145, 4-(4-{[(1H-benzimidazol-2-yl)methyl]amino}-8-bromopyrazolo[1,5-a][1,3,5]triazin-2-yl)-1-imino-1lambda^6-thiomorpholin-1-one] | 6140 | 1620
3 | C[C@@H]1CN(c2nc(NCc3nc4ccccc4[nH]3)n3ncc(Br)c3n2)C[C@H](C)N1C [Example 129, N-(1H-benzimidazol-2-ylmethyl)-8-bromo-2-[(3R,5S)-3,4,5-trimethylpiperazin-1-yl]pyrazolo[1,5-a][1,3,5]triazin-4-amine] | > 20000 | 132
4 | C[C@H]1CN(c2nc(NCc3nc4ccccc4[nH]3)n3ncc(Br)c3n2)CCN1C [Example 132, N-[(1H-benzimidazol-2-yl)methyl]-8-bromo-2-[(3S)-3,4-dimethylpiperazin-1-yl]pyrazolo[1,5-a][1,3,5]triazin-4-amine] | 7430 | 43
5 | Brc1cnn2c(NCc3nc4ccccc4[nH]3)nc(N3C[C@@H]4CCCN[C@@H]4C3)nc12 [Example 146, N-[(1H-benzimidazol-2-yl)methyl]-8-bromo-2-[(4aS,7aS)-octahydro-6H-pyrrolo[3,4-b]pyridin-6-yl]pyrazolo[1,5-a][1,3,5]triazin-4-amine] | 7110 | 43.3
6 | Brc1cnn2c(NCc3nc4ccccc4[nH]3)nc(N3CCC3)nc12 [Example 143, 2-(azetidin-1-yl)-N-[(1H-benzimidazol-2-yl)methyl]-8-bromopyrazolo[1,5-a][1,3,5]triazin-4-amine] | 17800 | 827
7 | C[C@@H]1CN(c2nc(NCc3nnc(-c4ccccc4)[nH]3)n3ncc(Br)c3n2)C[C@H](C)N1 [Example 127, 8-bromo-2-[(3R,5S)-3,5-dimethylpiperazin-1-yl]-N-[(5-phenyl-4H-1,2,4-triazol-3-yl)methyl]pyrazolo[1,5-a][1,3,5]triazin-4-amine] | > 20000 | 32.5
8 | CN1CCN(c2nc(NCc3nc4c(F)c(F)ccc4[nH]3)n3ncc(Br)c3n2)CC1 [Example 133, 8-bromo-N-[(4,5-difluoro-1H-benzimidazol-2-yl)methyl]-2-(4-methylpiperazin-1-yl)pyrazolo[1,5-a][1,3,5]triazin-4-amine] | 15100 | 4.94
9 | C[C@@H]1CN(c2nc(NCc3nc4ccccc4[nH]3)n3ncc(Br)c3n2)C[C@H](C)N1 [Example 142, N-(1H-benzimidazol-2-ylmethyl)-8-bromo-2-[(3R,5S)-3,5-dimethylpiperazin-1-yl]pyrazolo[1,5-a][1,3,5]triazin-4-amine] | > 19800 | 23.7

More lines, now with the values ahead:

Row | IC50 (CDK2/CycE) [nM] | IC50 [1] [nM] | Compound
10 | > 20000 | 25.7 | CN1CCN(c2nc(NCc3nc4cc(F)ccc4[nH]3)n3ncc(C4CC4)c3n2)CC1 [Example 164, 8-cyclopropyl-N-[(5-fluoro-1H-benzimidazol-2-yl)methyl]-2-(4-methylpiperazin-1-yl)pyrazolo[1,5-a][1,3,5]triazin-4-amine]
11 | 1700 | 24.4 | Fc1cccc(-c2nnc(CNc3nc(N4C[C@H]5C[C@@H]4CO5)nc4c(Br)cnn34)[nH]2)c1 [Example 153, 8-bromo-N-{[5-(3-fluorophenyl)-4H-1,2,4-triazol-3-yl]methyl}-2-[(1R,4R)-2-oxa-5-azabicyclo[2.2.1]heptan-5-yl]pyrazolo[1,5-a][1,3,5]triazin-4-amine]
12 | 3120 | 317 | OCC1CCN1c1nc(NCc2nc3ccccc3[nH]2)n2ncc(Br)c2n1 (stereo not shown) [Example 147, [1-[4-(1H-benzimidazol-2-ylmethylamino)-8-bromo-pyrazolo[1,5-a][1,3,5]triazin-2-yl]azetidin-2-yl]methanol]
13 | 13400 | 37.2 | Cc1cccc2[nH]c(CNc3nc(N4CCN(C)CC4)nc4c(Br)cnn34)nc12 [Example 151, 8-bromo-N-[(4-methyl-1H-benzimidazol-2-yl)methyl]-2-(4-methylpiperazin-1-yl)pyrazolo[1,5-a][1,3,5]triazin-4-amine]
14 | > 20000 | 9.25 | CN1CCN(c2nc(NCc3nc4c(F)c(F)ccc4[nH]3)n3ncc(C4CC4)c3n2)CC1 [Example 159, 8-cyclopropyl-N-[(4,5-difluoro-1H-benzimidazol-2-yl)methyl]-2-(4-methylpiperazin-1-yl)pyrazolo[1,5-a][1,3,5]triazin-4-amine]
